IC50 data for twelve molecules are collected here from patent US11739098B2 (BRISTOL-MYERS SQUIBB COMPANY, priority 2017, dated 2023).

Each structure is given as a SMILES string.

Holding throughout (type): cell-based
In one test the target is T1, human TLR9 (Homo sapiens, UniProt Q9NR96).
T1 construct: host or cells: HEK-Blue cells (HEK293-derived reporter line)
T1 sequence (Q9NR96 26-1032): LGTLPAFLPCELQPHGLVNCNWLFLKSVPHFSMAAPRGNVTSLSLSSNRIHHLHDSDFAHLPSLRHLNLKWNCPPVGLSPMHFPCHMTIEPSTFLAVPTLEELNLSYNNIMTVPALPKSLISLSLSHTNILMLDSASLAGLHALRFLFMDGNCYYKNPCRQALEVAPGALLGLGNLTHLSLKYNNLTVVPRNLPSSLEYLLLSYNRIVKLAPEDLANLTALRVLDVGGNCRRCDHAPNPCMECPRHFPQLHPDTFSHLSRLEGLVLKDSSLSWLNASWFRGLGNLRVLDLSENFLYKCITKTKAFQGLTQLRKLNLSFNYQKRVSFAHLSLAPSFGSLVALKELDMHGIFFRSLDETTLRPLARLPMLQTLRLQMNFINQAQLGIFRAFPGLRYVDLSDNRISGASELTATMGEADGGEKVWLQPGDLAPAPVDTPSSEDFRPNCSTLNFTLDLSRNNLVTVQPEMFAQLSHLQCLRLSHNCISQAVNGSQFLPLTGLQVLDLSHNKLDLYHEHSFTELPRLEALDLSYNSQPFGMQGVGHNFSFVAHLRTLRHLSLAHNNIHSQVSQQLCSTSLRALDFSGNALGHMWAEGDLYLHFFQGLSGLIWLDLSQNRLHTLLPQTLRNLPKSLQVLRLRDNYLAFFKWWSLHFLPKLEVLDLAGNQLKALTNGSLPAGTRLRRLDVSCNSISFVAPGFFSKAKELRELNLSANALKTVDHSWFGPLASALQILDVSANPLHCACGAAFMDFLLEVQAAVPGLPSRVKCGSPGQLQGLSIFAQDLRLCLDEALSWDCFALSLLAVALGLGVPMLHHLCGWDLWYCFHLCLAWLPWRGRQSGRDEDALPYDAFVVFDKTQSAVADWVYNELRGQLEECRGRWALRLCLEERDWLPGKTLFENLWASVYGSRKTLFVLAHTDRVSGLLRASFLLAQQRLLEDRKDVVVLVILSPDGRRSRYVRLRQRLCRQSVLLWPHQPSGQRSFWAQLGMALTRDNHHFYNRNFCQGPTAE
In words: TLR9 inhibition reporter assay (HEK-Blue cells, SEAP reporter, ODN2006 stimulation). The conditions noted are these: HEK-Blue cells overexpressing human TLR9, SEAP reporter, ODN2006 5 nM. The method in brief: (§1)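 Percent inhibition of agonist-induced SEAP secretion in HEK-Blue cells after 22 h at 37 °C. Stimuli: 7.5 μM gardiquimod, 15.9 μM R848, 5 nM ODN2006 for TLR7, TLR8 and TLR9, added after 30 min compound exposure over a 0.05 nM–50 μM range.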

Another test concerns the target T2, human TLR8 (Homo sapiens, UniProt Q9NR97).
T2 construct: host or cells: HEK-Blue cells (HEK293-derived reporter line)
T2 sequence (Q9NR97 27-1041): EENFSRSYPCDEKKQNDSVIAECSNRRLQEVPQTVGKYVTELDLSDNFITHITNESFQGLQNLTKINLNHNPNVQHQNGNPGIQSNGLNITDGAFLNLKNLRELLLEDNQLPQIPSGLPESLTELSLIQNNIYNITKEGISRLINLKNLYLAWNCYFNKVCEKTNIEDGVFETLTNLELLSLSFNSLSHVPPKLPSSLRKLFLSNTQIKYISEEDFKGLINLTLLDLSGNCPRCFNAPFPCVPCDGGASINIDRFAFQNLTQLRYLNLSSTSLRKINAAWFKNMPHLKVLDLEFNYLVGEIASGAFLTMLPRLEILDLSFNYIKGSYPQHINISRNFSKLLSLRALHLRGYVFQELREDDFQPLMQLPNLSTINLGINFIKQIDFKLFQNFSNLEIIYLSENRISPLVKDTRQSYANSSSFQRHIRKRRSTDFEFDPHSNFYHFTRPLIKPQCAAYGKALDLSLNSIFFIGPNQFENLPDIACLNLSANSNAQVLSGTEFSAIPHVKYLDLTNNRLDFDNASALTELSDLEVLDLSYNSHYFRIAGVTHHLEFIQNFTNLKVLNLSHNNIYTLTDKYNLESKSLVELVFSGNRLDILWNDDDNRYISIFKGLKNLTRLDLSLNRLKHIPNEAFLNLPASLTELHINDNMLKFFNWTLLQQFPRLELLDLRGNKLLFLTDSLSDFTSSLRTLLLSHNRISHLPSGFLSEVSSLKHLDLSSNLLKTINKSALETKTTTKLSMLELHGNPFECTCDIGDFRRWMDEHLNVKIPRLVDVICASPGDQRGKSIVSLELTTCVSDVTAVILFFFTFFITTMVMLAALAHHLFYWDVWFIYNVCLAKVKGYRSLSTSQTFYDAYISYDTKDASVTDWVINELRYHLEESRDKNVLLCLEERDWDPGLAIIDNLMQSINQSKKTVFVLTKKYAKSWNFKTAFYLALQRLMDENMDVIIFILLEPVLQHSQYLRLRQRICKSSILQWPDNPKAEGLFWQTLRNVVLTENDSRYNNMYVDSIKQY
Description: TLR8 inhibition reporter assay (HEK-Blue cells, SEAP reporter, R848 stimulation). Particulars: HEK-Blue cells overexpressing human TLR8, SEAP reporter, R848 15.9 μM. The method in brief: as §1
(In a reporter assay the amount or activity of a reporter protein is the signal.)

The target in a further test is T3, human TLR7 (Homo sapiens, UniProt Q9NYK1).
T3 construct: host or cells: HEK-Blue cells (HEK293-derived reporter line)
T3 sequence (Q9NYK1 27-1049): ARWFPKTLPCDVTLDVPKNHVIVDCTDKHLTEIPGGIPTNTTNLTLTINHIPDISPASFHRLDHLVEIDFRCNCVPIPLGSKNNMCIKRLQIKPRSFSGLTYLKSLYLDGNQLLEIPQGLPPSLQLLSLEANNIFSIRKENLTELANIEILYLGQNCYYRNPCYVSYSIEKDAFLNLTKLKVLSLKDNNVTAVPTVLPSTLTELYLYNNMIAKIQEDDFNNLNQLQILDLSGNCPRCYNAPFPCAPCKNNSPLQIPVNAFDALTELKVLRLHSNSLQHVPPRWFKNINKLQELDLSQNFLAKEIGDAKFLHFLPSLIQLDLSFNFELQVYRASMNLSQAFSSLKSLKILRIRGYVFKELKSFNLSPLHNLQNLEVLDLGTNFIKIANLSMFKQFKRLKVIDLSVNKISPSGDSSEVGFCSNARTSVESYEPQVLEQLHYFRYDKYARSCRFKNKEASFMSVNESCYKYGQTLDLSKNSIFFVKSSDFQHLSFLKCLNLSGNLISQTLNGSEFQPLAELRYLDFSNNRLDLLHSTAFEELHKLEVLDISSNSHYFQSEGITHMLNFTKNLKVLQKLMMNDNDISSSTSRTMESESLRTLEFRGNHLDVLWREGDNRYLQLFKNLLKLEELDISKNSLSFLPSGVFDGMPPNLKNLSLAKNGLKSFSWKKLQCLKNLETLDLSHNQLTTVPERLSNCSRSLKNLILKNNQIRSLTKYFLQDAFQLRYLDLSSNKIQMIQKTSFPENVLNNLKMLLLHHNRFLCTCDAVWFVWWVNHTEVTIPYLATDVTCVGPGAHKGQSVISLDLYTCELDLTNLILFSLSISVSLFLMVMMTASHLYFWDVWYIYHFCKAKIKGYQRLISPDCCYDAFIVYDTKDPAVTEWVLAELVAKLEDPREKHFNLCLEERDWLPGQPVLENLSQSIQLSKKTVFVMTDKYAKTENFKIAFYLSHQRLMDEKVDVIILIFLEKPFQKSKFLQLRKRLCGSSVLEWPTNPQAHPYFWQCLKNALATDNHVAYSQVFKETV
Description: TLR7 inhibition reporter assay (HEK-Blue cells, SEAP reporter, gardiquimod stimulation). Particulars: HEK-Blue cells overexpressing human TLR7, SEAP reporter, gardiquimod 7.5 μM. An outline of the steps:
as §1

Broadly, the IC50 is the midpoint of a concentration-inhibition curve. Lower therefore signals higher potency. Regarding `CC(C)c1c(-c2ccnc3[nH]ncc23)[nH]c2ccc(C3CCN(C(=O)C4CCCNC4)CC3)cc12` (stereo not drawn) [Example 636, (4-(3-isopropyl-2-(1H-pyrazolo[3,4-b]pyridin-4-yl)-1H-indol-5-yl)piperidin-1-yl)(piperidin-3-yl)methanone], the IC50 is 0.1 to 1 µM against human TLR9, under 0.1 µM on human TLR8 and under 0.1 µM on human TLR7.

With `CC(C)c1c(-c2ccnc3[nH]ncc23)[nH]c2ccc(C3CCN(C(=O)C[C@H](C)N)CC3)cc12` [Example 637, (S)-3-amino-1-(4-(3-isopropyl-2-(1H-pyrazolo[3,4-b]pyridin-4-yl)-1H-indol-5-yl)piperidin-1-yl)butan-1-one], the IC50 is 1 to 50 µM against human TLR9, under 0.1 µM at human TLR8 and under 0.1 µM at human TLR7.

For the molecule `Cc1cc(-c2[nH]c3ccc(C4CCN(C(=O)C5CC(=O)N(C)C5)CC4)cc3c2C(C)C)c2ccccc2n1` (stereo not drawn) [Example 638, 4-(4-(3-isopropyl-2-(2-methylquinolin-4-yl)-1H-indol-5-yl)piperidine-1-carbonyl)-1-methylpyrrolidin-2-one], the IC50 on human TLR9 was over 50 µM; at human TLR8 it was 0.1 to 1 µM; on human TLR7, under 0.1 µM.

For `CC(C)c1c(-c2ccc3nccn3c2)[nH]c2ccc(C3CCN(C(=O)[C@@H]4CCCNC4)CC3)cc12` [Example 639, (R)-(4-(2-(imidazo[1,2-a]pyridin-6-yl)-3-isopropyl-1H-indol-5-yl)piperidin-1-yl)(piperidin-3-yl)methanone], the half-inhibitory concentration (IC50) on human TLR9 was 0.1 to 1 µM; against human TLR8 it was 0.1 to 1 µM; on human TLR7, under 0.1 µM.

Take `CC(C)c1c(-c2ccc3nccn3c2)[nH]c2ccc(C3CCN(C(=O)[C@H]4CCCNC4)CC3)cc12` [Example 640, (S)-(4-(2-(imidazo[1,2-a]pyridin-6-yl)-3-isopropyl-1H-indol-5-yl)piperidin-1-yl)(piperidin-3-yl)methanone]: the half-maximal inhibitory concentration (IC50) against human TLR9 is 1 to 50 µM; against human TLR8 it was 0.1 to 1 µM; at human TLR7, under 0.1 µM.

In the case of `CC(C)c1c(-c2ccnc3[nH]ncc23)[nH]c2ccc(C3CCN(C(=O)CCN4CCCCC4)CC3)cc12` [Example 641, 1-(4-(3-isopropyl-2-(1H-pyrazolo[3,4-b]pyridin-4-yl)-1H-indol-5-yl)piperidin-1-yl)-3-(piperidin-1-yl)propan-1-one], the IC50 against human TLR9 is 1 to 50 µM; against human TLR8, under 0.1 µM; against human TLR7 it was under 0.1 µM.

As for `CC(C)c1c(-c2ccnc3[nH]ncc23)[nH]c2ccc(C3CCN(C(=O)CCn4ccnc4)CC3)cc12` [Example 642, 3-(1H-imidazol-1-yl)-1-(4-(3-isopropyl-2-(1H-pyrazolo[3,4-b]pyridin-4-yl)-1H-indol-5-yl)piperidin-1-yl)propan-1-one], the half-inhibitory concentration (IC50) is 1 to 50 µM on human TLR9, under 0.1 µM at human TLR8 and under 0.1 µM at human TLR7.

Take `CC(C)c1c(-c2ccnc3[nH]ncc23)[nH]c2ccc(C3CCN(C(=O)CCN(C)C)CC3)cc12` [Example 643, 3-(dimethylamino)-1-(4-(3-isopropyl-2-(1H-pyrazolo[3,4-b]pyridin-4-yl)-1H-indol-5-yl)piperidin-1-yl)propan-1-one]: the 50% inhibitory concentration (IC50) was 0.1 to 1 µM against human TLR9, under 0.1 µM against human TLR8 and under 0.1 µM at human TLR7.

Take `CN1CC(C(=O)N2CCC(c3ccc4[nH]c(-c5ccc6nccn6c5)c(CC(F)F)c4c3)CC2)CC1=O` (stereo not drawn) [Example 644, 4-(4-(3-(2,2-difluoroethyl)-2-(imidazo[1,2-a]pyridin-6-yl)-1H-indol-5-yl)piperidine-1-carbonyl)-1-methylpyrrolidin-2-one]: the half-maximal inhibitory concentration (IC50) is over 50 µM at human TLR9, 1 to 50 µM at human TLR8 and 0.1 to 1 µM against human TLR7.

Consider `CC(C)c1c(-c2ccc3nccn3c2)[nH]c2ccc(C3CCN(C(=O)C4CC(=O)N(C)C4)CC3)cc12` (stereo not drawn) [Example 645, 4-(4-(2-(imidazo[1,2-a]pyridin-6-yl)-3-isopropyl-1H-indol-5-yl)piperidine-1-carbonyl)-1-methylpyrrolidin-2-one], for which the half-inhibitory concentration (IC50) against human TLR9 was over 50 µM; at human TLR8 it was 0.1 to 1 µM; against human TLR7, under 0.1 µM.

With `CC(=O)N1CCC(C(=O)N2CCC(c3ccc4[nH]c(-c5ccnc6[nH]ncc56)c(C(C)C)c4c3)CC2)CC1` [Example 646, 1-(4-(4-(3-isopropyl-2-(1H-pyrazolo[3,4-b]pyridin-4-yl)-1H-indol-5-yl)piperidine-1-carbonyl)piperidin-1-yl)ethan-1-one], the values for the concentration for half-maximal inhibition (IC50) on human TLR9, against human TLR8 and against human TLR7 were 1 to 50 µM, under 0.1 µM and 0.1 to 1 µM, respectively.

For `CCc1c(-c2ccnc3[nH]ncc23)[nH]c2ccc(C3CCN(C(=O)C4CCNCC4)CC3)cc12` [Example 647, (4-(3-ethyl-2-(1H-pyrazolo[3,4-b]pyridin-4-yl)-1H-indol-5-yl)piperidin-1-yl)(piperidin-4-yl)methanone], the concentration for half-maximal inhibition (IC50) at human TLR9 lay within 1 to 50 µM; against human TLR8, 0.1 to 1 µM; at human TLR7, 0.1 to 1 µM.
